“And” between values parts separate entries of the source, which are not always exact repeats. Equal values may be shown once.
Conditions: 513.09 K, Fluid (supercritical or subcritical phases), Coaxial cylinder method

CCCCCC [hexane]
Conditions | thermal conductivity
3280 kPa | 0.07438 W/m/K
3282 kPa | 0.07445 W/m/K
3284 kPa | 0.07451 W/m/K
3287 kPa | 0.07452 W/m/K
3288 kPa | 0.07459 W/m/K
3290 kPa | 0.07463 W/m/K
3292 kPa | 0.07463 W/m/K
3295 kPa | 0.07469 W/m/K
3298 kPa | 0.07463 W/m/K
3303 kPa | 0.07463 W/m/K
3306 kPa | 0.07437 W/m/K
3310 kPa | 0.07332 W/m/K
3312 kPa | 0.07332 W/m/K
3313 kPa | 0.07228 W/m/K
3318 kPa | 0.07228 W/m/K
3319 kPa | 0.07228 W/m/K
3322 kPa | 0.07228 W/m/K
3326 kPa | 0.07228 W/m/K
3330 kPa | 0.07228 W/m/K
3331 kPa | 0.07228 W/m/K
3332 kPa | 0.07228 W/m/K
3334 kPa | 0.07228 W/m/K
3336 kPa | 0.07228 W/m/K
3340 kPa | 0.07228 W/m/K
3343 kPa | 0.07197 W/m/K
3345 kPa | 0.07087 W/m/K
3346 kPa | 0.07087 W/m/K
3347 kPa | 0.07087 W/m/K
3350 kPa | 0.07087 W/m/K
3360 kPa | 0.07087 W/m/K
3370 kPa | 0.07087 W/m/K
3380 kPa | 0.07087 W/m/K
3390 kPa | 0.07087 W/m/K
3400 kPa | 0.06942 W/m/K
3420 kPa | 0.06942 W/m/K
3430 kPa | 0.06942 W/m/K
3450 kPa | 0.06824 W/m/K and 0.06843 W/m/K
3500 kPa | 0.06824 W/m/K
3600 kPa | 0.06824 W/m/K
3700 kPa | 0.06824 W/m/K
3800 kPa | 0.06824 W/m/K
3900 kPa | 0.06824 W/m/K
4000 kPa | 0.07056 W/m/K
4100 kPa | 0.0708 W/m/K and 0.07056 W/m/K
4200 kPa | 0.07086 W/m/K
4300 kPa | 0.07086 W/m/K
4600 kPa | 0.07116 W/m/K
4700 kPa | 0.07125 W/m/K
4800 kPa | 0.07144 W/m/K
4900 kPa | 0.07165 W/m/K
5000 kPa | 0.07187 W/m/K
5100 kPa | 0.07209 W/m/K
5200 kPa | 0.07225 W/m/K
5300 kPa | 0.0725 W/m/K
5400 kPa | 0.07269 W/m/K
5500 kPa | 0.07288 W/m/K
5600 kPa | 0.07304 W/m/K
5700 kPa | 0.07323 W/m/K
5800 kPa | 0.07339 W/m/K
5900 kPa | 0.07359 W/m/K
6000 kPa | 0.07375 W/m/K
6100 kPa | 0.07391 W/m/K
6200 kPa | 0.07408 W/m/K
6300 kPa | 0.07424 W/m/K
6400 kPa | 0.07438 W/m/K
6500 kPa | 0.07454 W/m/K
6600 kPa | 0.07471 W/m/K
6700 kPa | 0.07488 W/m/K
6800 kPa | 0.07501 W/m/K
6900 kPa | 0.07515 W/m/K
7000 kPa | 0.07528 W/m/K
7100 kPa | 0.07542 W/m/K
7150 kPa | 0.07549 W/m/K
7200 kPa | 0.07556 W/m/K
7211 kPa | 0.07556 W/m/K
7292 kPa | 0.07569 W/m/K
7496 kPa | 0.07597 W/m/K
7501 kPa | 0.07597 W/m/K
7517 kPa | 0.07597 W/m/K
7533 kPa | 0.07599 W/m/K
7800 kPa | 0.07638 W/m/K
8100 kPa | 0.07676 W/m/K
8200 kPa | 0.07687 W/m/K
